# What was measured:
# [1] = Evaluation of stability on excipient compatibility, compound C (Experimental Example 11); assay type: physicochemical; details: 60° C., 75% RH, 2 weeks
# Excerpt: Evaluation of Stability on Excipient Compatibility
# Compound C was physically mixed in various additives shown in Table 48 in a mortar (see Table 48 for mixing ratio), and the obtained mixed powder was placed in a glass sample bottle in a layer thickness of about 5 mm.
# The glass sample bottle was placed in a desiccator humidity-conditioned to 75% RH (relative humidity) without capping, and the desiccator containing the bottle was preserved for 2 weeks in a constant-temperature equipment set to 60° C.
# After the completion of the preservation, a 60 v/v % aqueous acetonitrile solution was added to a concentration of compound C of 0.5 mg/mL, and the mixture was subjected to a dissolution treatment by ultrasonication and a filtration treatment. Each sample was measured by high performance liquid chromatography, and the stability was evaluated based on the changes from the start of preservation.
# [2] = Guideline for the management of hyperuricemia and gout (1st Edit.); cited from earlier work
compound,measurement,setting,value
"O=C(c1cc(Cl)c(O)c(Cl)c1)N1CCOc2ccccc21 [Reference Example 3, (3,5-dichloro-4-hydroxyphenyl)-(2,3-dihydrobenzo[1,4]oxazin-4-yl)-methanone]",stability when compounded with an additive,[1]; compounded with an additive other than calcium silicate,good stability
same,HPLC peak of decomposition product,[1]; when calcium silicate is added,novel peak considered to derive from the decomposition product of compound C
O=c1[nH]c(=O)c2[nH]c(=O)[nH]c2[nH]1 [uric acid],dissolution concentration of uric acid in plasma,[2],7 mg/dL
